Experimental data published in US20250325500A1, “USE OF 5-METHOXY-2-AMINOINDAN ("MEAI") IN METHODS FOR TREATING COCAINE ADDICTION” (Clearmind Medicine Inc., priority 2022, published 2025).

Key:
Type in all cases: in vivo, rat
[1] = system: cocaine preference in rats; assay: CPP test, MEAI as a treatment for cocaine preference in rats; settings: rats conditioned with cocaine 15 mg/kg
Procedure: (§1) Two groups were tested: One group received MEAI (four different doses), while the second group received cocaine in each conditioning day. Additionally, some rats that received cocaine were treated with MEAI on the test day to determine if MEAI has a treatment-like effect.
In the CPP assay, the rats learned to associate a reward with an environmental cue. Two groups of rats were put through a three-day baseline period during which each rat was allowed to freely move during 20 minutes from a striped to a smooth compartment in a closed arena. Time measurements were taken to determine which compartment the rat spent more time in (i.e., preferred). Baseline data was determined as an average duration of time spent in each compartment. After the baseline period, a training period of 5 days was conducted in which rats were injected with saline (I.P.) in the morning and placed in the preferred compartment for 20 minutes. […] The duration time spent in each compartment was calculated as the difference between the baseline time and the testing time (seconds) as previously described. […]
The two groups were divided as values below 100 seconds in a non-preferred compartment (MEAI A) and above 100 seconds (MEAI B). […] The behavioral data were analyzed with Ordinary one-way ANOVA. Data was expressed as mean±SEM and a probability value of […] was considered significant. n=5-12 rats per group. […]

rats [2] = assay: Side effects observed in rats dosed with MEAI during CPP conditioning; settings: anxiety, diarrhea, secretion of vaginal plug
Procedure: (§2) In the CPP assay, the rats learned to associate a reward with an environmental cue. Two groups of rats were put through a three-day baseline period during which each rat was allowed to freely move during 20 minutes from a striped to a smooth compartment in a closed arena. Time measurements were taken to determine which compartment the rat spent more time in (i.e., preferred). Baseline data was determined as an average duration of time spent in each compartment. After the baseline period, a training period of 5 days was conducted in which rats were injected with saline (I.P.) in the morning and placed in the preferred compartment for 20 minutes. Four hours after the saline injection, cocaine (15 mg/kg I.P.) or MEAI (4 doses; 20, 10, 5 and 2.5 mg/kg I.P.) was injected and the rat was placed in the less preferred compartment for 20 minutes. On the 6th day, a CPP test was conducted (identical to the baseline period) to determine if MEAI imparts a reward-like effect similar to cocaine. The duration time spent in each compartment was calculated as the difference between the baseline time and the testing time (seconds) as previously described.
We started testing with 20 mg/kg of MEAI. […] Due to these side effects, we decided to test lower doses of MEAI as opposed to higher doses. Accordingly, the following dose tested was 10 mg/kg of MEAI. 51% of the rats receiving this dose had side effects, including anxiety, aggressiveness, piloerection, tremors low body posture, diarrhea, and secretion of “vaginal plug,” with a trend towards improved symptoms, although not statistically significant, compared to the 20 mg/kg dose. […] Overall, the mean that was most negative was for the dose 5 mg/kg, and therefore we decided to test the efficacy of this dose as a treatment for cocaine preference in rats.

rats [3] = assay: Conditioned Place Preference (CPP) model, reward-like effect of MEAI; settings: 5 conditioning days, test on 6th day, difference from baseline
Procedure: as §1, §2
In the first part of this study, we examined whether administration of MEAI in four different doses […] reward.

SMILES: COc1ccc2c(c1)CC(N)C2 (stereo not shown) [MEAI, 5-methoxy-2-aminoindan]
- decrease of reward in cocaine-conditioned rats, 5 mg/kg versus 10 mg/kg ([1]; MEAI 5 mg/kg i.p. compared with 10 mg/kg i.p. on test day (FIG. 2)): better results in decreasing reward
- compartment preference of cocaine-conditioned rats after treatment ([1]; MEAI 5 mg/kg i.p. on test day, 10 min before test): mixed
- rats presenting side effects (rats [2]; MEAI 2.5 mg/kg I.P.): 21.4%
- rats presenting side effects (rats [2]; MEAI 5 mg/kg I.P.): 20.2%
- rats presenting side effects (rats [2]; MEAI 10 mg/kg I.P., aggressiveness, piloerection, tremors, low body posture): 51%
- rats presenting side effects (rats [2]; MEAI 20 mg/kg I.P., aggressiveness, piloerection, tremors, low body posture): 65.7%
- duration of time spent in a non-preferred place (reward) (rats [3]; MEAI 2.5 mg/kg I.P.): negative
- duration of time spent in a non-preferred place (reward) (rats [3]; MEAI 5 mg/kg I.P.): negative
- duration of time spent in a non-preferred place (reward) (rats [3]; MEAI 10 mg/kg I.P.): rewarding effect
- duration of time spent in a non-preferred place (reward) (rats [3]; MEAI 20 mg/kg I.P.): low reward
